Target: B-Raf (V600E)-kinase (Homo sapiens, UniProt P15056, V600E)
Assay: Kinase test B-Raf (V600E)
Format: biochemical
Details: 100% = no inhibition, 0% = total inhibition, read-out: % CTL (residual activity of the enzyme relative to DMSO control); for remaining activity at 2 µM: compound concentration 2 μM; for remaining activity at 0.29 µM: measurement at 0.29 μM (*); for remaining activity at 1.43 µM: measurement at 1.43 μM (***)
How it was run: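 Kinase preincubated with compound (typically 2 μM to 0.119 nM or 0.017 nM, 5% DMSO) 1 h at RT, then reacted 60 min at RT with 250 μM ATP and biotinylated MEK1. Phospho-MEK (Ser217/221) captured on streptavidin, detected by europium time-resolved fluorescence; IC50 from dose-response curves.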

B-Raf (V600E)-kinase, sequence (P15056 whole entry V600E): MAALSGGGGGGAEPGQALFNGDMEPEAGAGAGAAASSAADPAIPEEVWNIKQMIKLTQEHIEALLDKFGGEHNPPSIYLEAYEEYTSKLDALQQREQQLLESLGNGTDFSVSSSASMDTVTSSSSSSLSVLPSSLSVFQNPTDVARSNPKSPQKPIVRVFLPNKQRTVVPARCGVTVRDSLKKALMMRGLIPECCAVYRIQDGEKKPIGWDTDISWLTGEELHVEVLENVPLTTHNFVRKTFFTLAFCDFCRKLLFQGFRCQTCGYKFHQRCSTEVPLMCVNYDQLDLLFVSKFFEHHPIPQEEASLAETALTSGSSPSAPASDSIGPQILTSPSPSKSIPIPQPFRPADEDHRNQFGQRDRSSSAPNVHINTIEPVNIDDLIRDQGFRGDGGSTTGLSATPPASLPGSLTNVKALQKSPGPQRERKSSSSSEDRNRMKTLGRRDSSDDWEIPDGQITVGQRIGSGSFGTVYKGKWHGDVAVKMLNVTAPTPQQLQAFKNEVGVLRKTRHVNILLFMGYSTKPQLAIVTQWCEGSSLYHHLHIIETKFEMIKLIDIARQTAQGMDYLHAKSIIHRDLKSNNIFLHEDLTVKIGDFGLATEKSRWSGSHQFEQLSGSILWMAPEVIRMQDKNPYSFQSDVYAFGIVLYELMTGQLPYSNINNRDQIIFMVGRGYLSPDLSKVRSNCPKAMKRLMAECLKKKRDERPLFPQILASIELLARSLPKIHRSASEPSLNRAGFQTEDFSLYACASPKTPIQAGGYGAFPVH

Compound	remaining activity at 2 µM [%]	also measured
COCCCN1CCN(c2cncc(-c3cn(-c4cc(NC(=O)c5cc(C(F)(F)F)ccn5)cnc4C)nn3)c2)CC1 [XII-31]	1.9	–
Cc1ncc(C(=O)Nc2cc(C3CCN(C)CC3)cc(C(F)(F)F)c2)cc1-n1cc(-c2cnn(C)c2C)nn1 [Example I-86]	1.4	–
Cc1ncc(NC(=O)c2cccc(C(C)(C)C#N)c2)cc1-n1cc(-c2cncc(CN(C)C)c2)nn1 [XII-64]	0.9	–
CC(=O)Nc1ncc(-c2cn(-c3cc(C(=O)Nc4cc(N5CCN(C)CC5)cc(C(F)(F)F)c4)cnc3C)nn2)s1 [Example I-16]	–	remaining activity at 0.29 µM: 2%
COc1cncc(-c2cn(-c3cc(C(=O)Nc4cc(C(F)(F)F)ccn4)cnc3C)nn2)c1 [Example I-29]	2.5	–
Cc1ncc(C(=O)Nc2cc(C(C)(C)C)on2)cc1-n1cc(-c2cncc(N3CCC(CN4CCOCC4)CC3)c2)nn1 [Example I-206]	0.9	–
Cc1ncc(C(=O)Nc2cc(C(F)(F)F)cc(Br)c2C)cc1-n1cc(-c2cnn(C)c2C)nn1 [Example I-100]	3	–
Cc1ncc(C(=O)Nc2cc(N3CC[C@@H](N(C)C)C3)c(C)c(C(F)(F)F)c2)cc1-n1cc(-c2cnn(C)c2C)nn1 [Example I-65]	7.1	–
COc1c(CN2CCCC2)cc(NC(=O)c2cnc(C)c(-n3cc(-c4cnn(C)c4C)nn3)c2)cc1C(F)(F)F [Example I-116]	3.1	–
Cc1ncc(NC(=O)c2cc(OC(F)(F)F)cc(N3CCN(C)CC3)c2)cc1-n1cc(-c2cncnc2)nn1 [XII-26]	2.2	–
Cc1ncc(NC(=O)c2cccc(C(C)(C)C#N)c2)cc1-n1cc(-c2cncc(CO)c2)nn1 [XII-63]	3.8	–
CC(=O)Nc1ncc(-c2cn(-c3cc(C(=O)Nc4cc(C(F)(F)F)ccn4)cnc3C)nn2)s1 [Example I-14]	1.4	–
Cc1ncc(C(=O)Nc2cc(N3CCCCC3)c(C)c(C(F)(F)F)c2)cc1-n1cc(-c2cnn(C)c2C)nn1 [Example I-66]	6.4	–
Cc1ncc(NC(=O)c2cccc(OC(F)(F)F)c2)cc1-n1cc(-c2cnn(C)c2C)nn1 [XII-8]	6.4	–
Cc1ncc(C(=O)Nc2cc(C(C)(C)C)on2)cc1-n1cc(-c2cncc(N3CCN(CC(=O)N(C)C)CC3)c2)nn1 [Example I-176]	6.7	–
Cc1ncc(C(=O)Nc2cc(C(C)(C)C)on2)cc1-n1cc(-c2cncc(N3CCC(N4CCCCC4)CC3)c2)nn1 [Example I-139]	2.5	–
Cc1ncc(C(=O)Nc2cc(CNCC(C)C)c(C)c(C(F)(F)F)c2)cc1-n1cc(-c2cnn(C)c2C)nn1 [Example I-131]	2.2	–
Cc1ncc(C(=O)Nc2nnc(C(C)(C)C)s2)cc1-n1cc(-c2cncc(N3CCN(C(C)C)CC3)c2)nn1 [Example I-153]	1.8	–
COc1cncc(-c2cn(-c3cc(C(=O)Nc4ccc(OC)c(C(F)(F)F)c4)cnc3C)nn2)c1 [Example I-92]	2.5	–
Cc1ncc(C(=O)Nc2cc(C(C)(C)C)no2)cc1-n1cc(-c2cncc(N3CCN(C)CC3)c2)nn1 [Example I-180]	2.9	–
CCCCN1CCN(c2cncc(-c3cn(-c4cc(C(=O)Nc5cc(C(C)(C)C)on5)cnc4C)nn3)c2)CC1 [Example I-172]	8	–
Cc1ncc(NC(=O)c2cc(C(C)(C)C)on2)cc1-n1cc(-c2cnn(C)c2C)nn1 [XII-3]	4.7	–
Cc1ncc(NC(=O)c2cc(OC(F)(F)F)cc(N3CCC(N(C)C)C3)c2)cc1-n1cc(-c2cnn(C)c2C)nn1 (centres unmarked) [XII-29]	1.6	–
CCN1CCN(c2cncc(-c3cn(-c4cc(NC(=O)c5cccc(OC(F)(F)F)c5)cnc4C)nn3)c2)CC1 [XII-55]	1.8	–

Compound	remaining activity at 2 µM [%]	also measured
Cc1ncc(C(=O)Nc2cc(C(C)(C)C)on2)cc1-n1cc(-c2cncc(NC3CCOC3)c2)nn1 (centres unmarked) [Example I-37]	2.5	–
Cc1ncc(C(=O)Nc2cc(C(C)(C)C)on2)cc1-n1cc(-c2cncc(N3CC[C@@H](N(C)C)C3)c2)nn1 [Example I-143]	2.2	–
COc1ccc(C(=O)Nc2cnc(C)c(-n3cc(-c4cncc(N5CCN(C)CC5)c4)nn3)c2)cc1C(F)(F)F [XII-40]	–	remaining activity at 0.29 µM: 3%
Cc1ncc(C(=O)Nc2ccc(Cl)c(C(C)(C)C)c2)cc1-n1cc(-c2cncc(N3CCN(C)CC3)c2)nn1 [Example I-147]	3.1	–
COc1cncc(-c2cn(-c3cc(NC(=O)c4cccc(C(C)(C)C#N)c4)cnc3C)nn2)c1 [XII-12]	5.2	–
COc1ccc(NC(=O)c2cnc(C)c(-n3cc(-c4cnc5cnc(C)cn45)nn3)c2)cc1C(F)(F)F [Example I-33]	1.4	–
Cc1cn2c(-c3cn(-c4cc(C(=O)Nc5cc(C(F)(F)F)ccn5)cnc4C)nn3)cnc2cn1 [Example I-32]	1.5	–
Cc1ncc(C(=O)Nc2cc(C(F)(F)F)cc(N(C)CCN(C)C)c2C)cc1-n1cc(-c2cnn(C)c2C)nn1 [Example I-119]	1.8	–
Cc1ncc(NC(=O)c2cccc(C(C)(C)C#N)c2)cc1-n1cc(-c2cncc(N3CCN(C(C)C)CC3)c2)nn1 [XII-50]	6.8	–
Cc1ncc(NC(=O)c2cccc(OC(F)(F)F)c2)cc1-n1cc(-c2cncc(N3CCN(C)CC3)c2)nn1 [XII-36]	1.3	–
Cc1ncc(C(=O)Nc2cc(C(C)(C)C)on2)cc1-n1cc(-c2cncc(N3CCC(N4CCN(C)CC4)CC3)c2)nn1 [Example I-205]	0.8	–
Cc1ncc(C(=O)Nc2cc(CN(C)C)cc(C(F)(F)F)c2)cc1-n1cc(-c2cnn(C)c2C)nn1 [Example I-106]	1.3	–
COCCN(C)Cc1cc(NC(=O)c2cnc(C)c(-n3cc(-c4cnn(C)c4C)nn3)c2)cc(C(F)(F)F)c1C [Example I-94]	3.5	–
Cc1ncc(C(=O)Nc2cc(C(C)(C)C)on2)cc1-n1cc(-c2cncc(N3CCN(C(C)C)CC3)c2)nn1 [Example I-140]	2.2	–
COc1c(CNCC(C)C)cc(C(F)(F)F)cc1NC(=O)c1cnc(C)c(-n2cc(-c3cnn(C)c3C)nn2)c1 [Example I-105]	–	remaining activity at 1.43 µM: 2%
Cc1ncc(NC(=O)c2cccc(C(C)(C)C#N)c2)cc1-n1cc(-c2cccnc2)nn1 [XII-11]	–	remaining activity at 1.43 µM: 1.5%
Cc1ncc(NC(=O)c2cccc(C(C)(C)C#N)c2)cc1-n1cc(-c2cncc(C#N)c2)nn1 [XII-13]	0.9	–
Cc1ncc(C(=O)Nc2cc(C(C)(C)C)on2)cc1-n1cc(-c2cncc(CN3CCC(F)(F)C3)c2)nn1 [Example I-189]	3.8	–
Cc1ncc(C(=O)Nc2cc(C(C)(C)C)on2)cc1-n1cc(-c2cncc(N3CCC(N4CCOCC4)CC3)c2)nn1 [Example I-136]	2.5	–
Cc1ncc(C(=O)Nc2cc(N3CCN(C)CC3)c(C)c(C(F)(F)F)c2)cc1-n1cc(-c2cnn(C)c2C)nn1 [Example I-6]	2.1	–
Cc1ncc(C(=O)Nc2cc(N3CCOCC3)cc(C(F)(F)F)c2)cc1-n1cc(-c2cnn(C)c2C)nn1 [Example I-69]	2.8	–
Cc1ncc(C(=O)Nc2cc(C(C)(C)C)on2)cc1-n1cc(-c2cncc(N3CCN(CCC#N)CC3)c2)nn1 [Example I-175]	8.1	–
Cc1ncc(C(=O)Nc2cc(OC(F)(F)F)cc(N3CCN(C)CC3)c2)cc1-n1cc(-c2cncs2)nn1 [Example I-51]	4	–
